In US20090054507A1, “CONTROL OF MALIGNANT CELLS BY KINASE INHIBITION” (CLEVELAND STATE UNIVERSITY, priority 2006, published 2009):

What was measured:
Assay type in all cases: cell-based, human
MEG-01 cells [1] = assay: Viability (proliferation) assay, Trypan blue exclusion, MEG-01
MEG-01 cells [2] = assay: Thrombocytopoiesis / proplatelet formation by microscopy
Method: Light microscopy (phase contrast) and DAPI fluorescence microscopy. High quality pictures and live imaging were obtained at Cleveland Clinic Imaging Core (Cleveland, Ohio). DAPI staining of cultured MEG-01 cells was performed with fresh cells. For live imaging (observing a single cell for a 24 hour period of time) of the thrombocytopoiesis process, MEG-01 suspension cells were made adherent by using Fibronectin (FN) coated culture dishes. FN was used, at 5 μg/cm^2 and incubated at 37° C. for 1 h, as recommended by the supplier (BD Biosciences, Bedford, Mass., USA).
Scanning electron microscopy (SEM). Cell preparation and pictures were performed at the Microscopy Core Facility (Cleveland Clinic). Cells were grown for 4 days in the presence of 10 μM DMAT and then collected by differential centrifugation. Cells were fixed in glutaraldehyde and then further processed at the Core. The clot was prepared with platelets collected from MEG-01 cultures treated with 10 μM DMAT. Human thrombin 0.5 U/ml for 15 minutes was used to activate them.

MEG-01 cells [3] = assay: Annexin V-FITC and PI apoptosis assay, MEG-01
Method: Flow cytometric analysis. Cells were analyzed using a FACSCalibur flow cytofluorometer (Becton-Dickinson), with CellQuestPro ver. 3.3 software. The data was further analyzed with FlowJo ver. 6.2, and WinMDI 2.8 software. Proper gating was performed to characterize each cell population (MEG-01 cells and platelets). The population that corresponds to platelets (small, granulated particles), is PI negative because thrombocytes are anucleated cells (only the viable cells were considered) and were distinguished by their capacity to become activated, undergoing shape change in response to agonist and to show phosphatidylserine (PS) exposure when activated. Platelets were further separated from the megakaryocytic cells, by differential centrifugation, considering the size difference between these cell populations (1-5 μm for platelets and 35-150 μm for megakaryocytic cell line MEG-01) and analyzed separately. Voltage and channels settings were adjusted accordingly. Analyzed values were obtained with WinMDI ver. 2.8.
Apoptosis Assays using Flow Cytometry with Annexin V-FITC and propidium iodide (PI). For induction of typical apoptosis, cells were grown in the presence of 1 μM staurosporine (Sigma-Aldrich) for 6 hours. The staurosporine treated cells were stained as follows: control 1 with PI, control 2 with Annexin V-FITC and control 3 both PI and Annexin V-FITC in order to have the brightest controls for compensation and proper collection of the flow cytometry data. Cell necrosis was induced by heat shock (65° C. for 30 minutes). The stained control, both PI and Annexin V-FITC labeled, was then used as the reference in establishing the level of apoptosis induced by the treatments. Data was collected on logarithmic modes, two-colors. Annexin V-FITC corresponds to FL1 H channel, and PI to FL3H or FL2H channels.
Annexin V-FITC and PI apoptosis assay staining protocol. Apoptosis Annexin V-FITC and PI kit from BD Biosciences, CA, USA, was used. 10^5-10^6 cells were stained with 50 μg/ml PI and with 0.5 μg/ml FITC-labeled Annexin V using the staining protocol provided by the supplier. Samples were then analyzed immediately by flow cytometry.

Row | SMILES | proliferation of MEG-01 cells (Trypan Blue exclusion) (MEG-01 cells [1]; 5 nM PMA, five days of treatment) | thrombocytopoiesis (MEG-01 cells [2]) | cell number / proliferation rate of MEG-01 cells (MEG-01 cells [1]; 100 μM TBB, 4 days of treatment) | cytotoxicity (necrosis) in MEG-01 cells (MEG-01 cells [3]) | dose and time dependence of induced apoptosis and phenotype change (MEG-01 cells [3]; 24 to 96 hours)
1 | CCCCCCCCCCCCCC(=O)O[C@@H]1[C@@H](C)[C@@]2(O)[C@@H](C=C(CO)C[C@]3(O)C(=O)C(C)=C[C@@H]23)[C@@H]2C(C)(C)[C@]12OC(C)=O [PMA, Phorbol 12-myristate 13-acetate, reference compound] | a decrease in proliferation was observed |  |  |  | 
2 | Brc1c(Br)c(Br)c2[nH]nnc2c1Br [TBB, 4,5,6,7-tetrabromobenzotriazole] |  | induced thrombocytopoiesis | maintained a steady number of cells | without being cytotoxic | dose and time dependent
